Measurements published in patent US20160115200A1, “New Use for JNK Inhibitor Molecules for Treatment of Various Diseases” (XIGEN INFLAMMATION LTD., priority 2013, published 2016).
Square brackets hold non-standard residues; d marks the D form. Peptide text beside a SMILES is read from it.

Tests used:
human whole blood = test: Cytokine release in human whole blood stimulated 4 hours with LPS or PMA+ionomycin; assay type: cell-based; settings: human whole blood, 1, 3, 10 μM
Experimental: FIG. 18 JNK inhibition and IL-6 release in human whole blood. The JNK inhibitor with SEQ ID NO: 172 was added at three different concentrations, namely 1, 3 and 10 μM 1 h before whole blood stimulation with LPS (0.02 ng/mL) for 4 hours.
FIG. 19 JNK inhibition and IL-2 release in human whole blood. The JNK inhibitor with SEQ ID NO: 172 was added at three different concentrations, namely 1, 3 and 10 μM 1 h before whole blood stimulation with PMA+ionomycin (25/700 ng/mL, 50/800 ng/mL and 50/1000 ng/mL) for 4 hours.
(§1) Whole blood is collected from anesthetized rat or human healthy volunteers using a venipuncture connected to a pre-labeled vacuum tube containing sodium citrate. Tubes are gently mixed by inversion 7-8 times; and are then kept at RT until stimulation. JNK inhibitor of SEQ ID NO: 172 is prepared 6 times concentrated in PBS, and 30 μl/well of mix is added into 96-well plate. Whole blood is diluted by 1:2 in PBS and 120 μl of diluted blood is added in each well where either PBS alone or JNK inhibitor of SEQ ID NO: 172 has been previously added. Whole blood is incubated at 37° C.; 85 rpm (Stuart Orbital incubator SI500) for 60 min. Activators (LPS) are the prepared, 30 μl/well of LPS, 6 times concentrated. After 60 min incubation, LPS is added to the blood, blood is mixed by pipetting up and down, and then kept for 4 h under agitation (85 rpm), at 37° C. After the 4 h incubation, the plates are centrifuged at about 770 g, 4° C. for 15 min in a pre-cooled centrifuge. Supernatants are finally collected and kept at −20° C. until cytokine measurement. Cytokine (IL-6, IL-2, IFNγ and TNFα) were then measured using standard Elisa kits (e.g. from R&D Systems: DuoSet Elisas; or from BD Biosciences: BD Opteia Set Elisa). Results are expressed as pg/ml of supernatant of the measured cytokine.
A similar experiment was conducted with PMA+ionomycin instead of LPS as activator/stimulant.

[1] = test system: Primary Rat Whole Blood Cells; test: Cytokine release in rat whole blood stimulated with LPS or PMA+ionomycin; assay type: cell-based; settings: 10 μM inhibitor, PMA+ionomycin 25/500, 50/750, 50/1000 ng/mL, 4 h
Experimental: Given are the results for the control, 1 μM of SEQ ID NO: 172, 3 μM of SEQ ID NO: 172, and 10 μM of SEQ ID NO: 172 at different levels of LPS (ng/ml).
FIG. 17 Dose dependent inhibition of IL-2 release in rat whole blood stimulated with PMA+ionomycin. JNK inhibitor with SEQ ID NO: 172 was added at three different concentrations, namely 1, 3 and 10 μM 1 h before stimulation with PMA+ionomycin. Three doses of activators were added (25/500 ng/mL, 50/750 ng/mL and 50/1000 ng/mL) for 4 h. IL-2 release was assessed in supernatant.
as §1, with “Activators (LPS) are the prepared, 30 μl/well of LPS, 6 times concentrated. After 60 min incubation, LPS is added to the blood, blood is mixed by pipetting up and down, and then kept for 4 h under agitation (85 rpm), at 37° C. After the 4 h incubation, the plates are centrifuged at about 770 g, 4° C. for 15 min in a pre-cooled centrifuge. Supernatants are finally collected and kept at −20° C. until cytokine measurement.” left out, “cytokine. […]” for “cytokine.”

## CC(C)C[C@H](NC(=O)[C@H](CC(N)=O)NC(=O)[C@H](CC(C)C)NC(=O)[C@@H](NC(=O)[C@@H](C)NC(=O)[C@@H]1CCCN1C(=O)[C@H](CCCNC(=N)N)NC(=O)[C@@H](CCCCN)NC(=O)[C@@H]1CCCN1C(=O)[C@H](CCCNC(=N)N)NC(=O)[C@@H](CCCNC(=N)N)NC(=O)[C@H](CCCNC(=N)N)NC(=O)[C@H](CCCNC(=N)N)NC(=O)[C@H](CCC(N)=O)NC(=O)[C@@H](CCCNC(=N)N)NC(=O)[C@H](CCCNC(=N)N)NC(=O)[C@H](CCCCN)NC(=O)[C@H](CCCCN)NC(=O)[C@H](N)CCCNC(=N)N)[C@@H](C)O)C(=O)N[C@H](Cc1ccccc1)C(N)=O [SEQ ID NO: 172, rKKRrQRRrRPkRPaTLNLf] (H-[dR]KKR[dR]QRR[dR]RP[dK]RP[dA]TLNL[dF]-NH2)
Human whole blood
  PMA+ionomycin-induced IFN-γ release: reduce the PMA+ionomycin-induced IFN-γ release in a dose-dependent manner
  PMA+ionomycin-induced IL-2 release: reduce the PMA+ionomycin-induced IL-2 release in a dose-dependent manner
  PMA+ionomycin-induced TNF-α release: reduce the PMA+ionomycin-induced TNF-α release in a dose-dependent manner
Human whole blood; LPS 0.02 ng/mL
  LPS-induced IL-6 release: reduce the LPS-induced IL-6 release in a dose-dependent manner
[1]
  PMA-iono-induced IL-2 release: efficiently reduce
